Laboratory results published in patent publication US9625448B2, “Double caged GABA compounds, bis-CNB-GABA” (The Trustees of Princeton University, priority 2014, dated 2017).
“Also recorded” adds a separate entry of the source.

Tests used:
[1] = Gee et al., 1994; cited from earlier work
[2] = at 24 hr; prior report; cited from earlier work
[3] = test system: GABAA receptors; experiment: Monosynaptic IPSC, whole-cell patch clamp of dentate granule cells of rat hippocampal slices (Molnár & Nadler, 2000); format: cell-based
Protocol: FIGS. 25A-25B illustrate CNB-GABA depressed in a concentration-dependent manner the monosynaptic IPSC evoked by stimulation of the molecular layer as was observed by Molnár & Nadler, 2000. Referring to FIGS. 2A-25B, stimuli were delivered every 30 s. […] FIG. 25B illustrates cumulative concentration-response curve. Referring to FIG. 25B, the IC for CNB-GABA was essentially the same in the absence (28±9 mM, mean±S.D., n=5) and presence (32±13 mM, mean±S.D., n=4) of the GABAB receptor antagonist CGP 55845A. (Molnár & Nadler, 2000 European Journal of Pharmacology, 391, 255-262, which is incorporated herein by reference as if fully set forth).
FIG. 26 illustrates whole-cell patch clamp recordings from dentate granule cells of rat hippocampal slices reported by Molnár & Nadler, 2000. […] Holding potential of −80 mV. (Molnár & Nadler, 2000 European Journal of Pharmacology, 391, 255-262, which is incorporated herein by reference as if fully set forth, which is incorporated herein by reference as if fully set forth). […] FIG. 27 illustrates summary of the amplitudes of the current evoked by puff of 100 μM GABA and caged compounds around the soma reported by Matsuzaki et al., 2010. The amplitude was normalized to the mean current that was induced by GABA application alone. Left panel illustrates control (n=7); +10 mM CNI-GABA (n=7). […]

[4] = Absorbance spectrum / extinction coefficient; format: physicochemical; details: for extinction coefficient: at 262 nm
Protocol: Following successful synthesis of bis-CNB-GABA, it was necessary to quantify extinction coefficient and quantum yield. […] Referring to FIG. 32, the first was accomplished simply by taking an absorbance spectrum of the compound. Extinction coefficient was then calculated from Beer's law.

[5] = test system: glutamate receptors; experiment: Spontaneous EPSCs / miniature AMPA currents recorded from cerebellar interneurons; format: cell-based
Protocol: Bis-CNB-GABA was applied in vitro. Currents were recorded from cerebellar interneurons. […] FIG. 35 (right) illustrates response traces before and after application of bis-CNB-GABA. FIG. 35 (left) illustrates summary of data. FIG. 36 illustrates effects of 1 mM bis-CNB-GABA on spontaneously evoked miniature glutamate and miniature GABA currents in cerebellar interneuron.
FIG. 37 illustrates effects of uncaging. […] Referring to FIG. 37 (bottom), the graph illustrates uncaging at 365 nm with LED in the presence of 3 mM gabazine.
As a third and final test of the synaptic effects of bis-CNB-GABA, we measured its impact on spontaneous glutamatergic postsynaptic currents (EPSCs) recorded from MLIs. Referring to FIGS. 43B and 43E, with this configuration, no change in the amplitude of the EPSCs was observed (FIG. 43B, bottom) even with concentrations of bis-CNB-GABA up to 2 mM (FIG. 43E, p=0.4, Spearman rank order correlation test).

In the case of `NCCCC(=O)OC(C(=O)O)c1ccccc1[N+](=O)[O-]` (centres unmarked) [mono-CNB-GABA], the solubility [1] is given as “over 50 mM”, the “conversion in the dark” value [2] is given as < 1% and the “concentration required to generate 33% reduction in response” value [3] is given as 14 µM. It also gave an IC33 ([3]; Table 1, calculated, q=0.33, in mM) of 0.014.

With `O=C(CCCNC(C(=O)O)c1ccccc1[N+](=O)[O-])OC(C(=O)O)c1ccccc1[N+](=O)[O-]` (centres unmarked) [bis-CNB-GABA, 2-((4-(Carboxy(2-nitrophenyl)methoxy)-4-oxobutyl)amino)-2-(2-nitrophenyl)acetic acid] the “wavelength of maximal absorbance” value [4] was 262 nm, the extinction coefficient ([4]; listed as Bis-CNB GABA) was 7,550 M^−1 cm^−1 and the extinction coefficient ([4]; listed as Bis-CNB-GABA) was 7550 M⁻¹ cm⁻¹. The “effect on spontaneously-evoked AMPA currents” value ([5]; 1 mM (FIG. 36), FIG. 39) was “no significant effect”, the “effect on amplitude of miniature AMPA currents” value ([5]; 1.223 mM) was “no significant effect” and the “effect on miniature AMPA currents” value ([5]; 1.233 mM and 1.0 mM) was “no significant effect”. For the same compound, the “effect on spontaneous EPSC size / amplitude” value ([5]; all concentrations tested, up to 2 mM) was “unaffected; also recorded: no change”.
